Assays:
Settings in all cases: in vivo, po
[1] = species on record: Homo sapiens; test: Toxicity in […] assessed as incidence of viral infection at 200 mg, perorally for 3 days and weekly 200 mg, perorally maintenance dose for 26 +/- 4 weeks; type: organism-based
[2] = species on record: Homo sapiens; test: Toxicity in […] assessed as incidence of headache at 200 mg, perorally for 3 days and weekly 200 mg, perorally maintenance dose for 26 +/- 4 weeks; type: organism-based
[3] = species on record: Homo sapiens; test: Toxicity in […] assessed as incidence of fungal dermatitis at 200 mg, perorally for 3 days and weekly 200 mg, perorally maintenance dose for 26 +/- 4 weeks; type: organism-based
[4] = species on record: Homo sapiens; test: Toxicity in […] assessed as incidence of rash at 200 mg, perorally for 3 days and weekly 200 mg, perorally maintenance dose for 26 +/- 4 weeks; type: organism-based
[5] = species on record: Homo sapiens; test: Toxicity in […] assessed as incidence of phayngitis at 200 mg, perorally for 3 days and weekly 200 mg, perorally maintenance dose for 26 +/- 4 weeks; type: organism-based
[6] = species on record: Homo sapiens; test: Toxicity in […] assessed as incidence of arthralgia at 200 mg, perorally for 3 days and weekly 200 mg, perorally maintenance dose for 26 +/- 4 weeks; type: organism-based
[7] = species on record: Homo sapiens; test: Toxicity in […] assessed as incidence of back pain at 200 mg, perorally for 3 days and weekly 200 mg, perorally maintenance dose for 26 +/- 4 weeks; type: organism-based
[8] = species on record: Homo sapiens; test: Toxicity in […] assessed as incidence of vomiting at 200 mg, perorally for 3 days and weekly 200 mg, perorally maintenance dose for 26 +/- 4 weeks; type: organism-based
[9] = species on record: Homo sapiens; test: Toxicity in […] assessed as incidence of abdominal pain at 200 mg, perorally for 3 days and weekly 200 mg, perorally maintenance dose for 26 +/- 4 weeks; type: organism-based, Abdomen
[10] = species on record: Homo sapiens; test: Toxicity in […] assessed as incidence of nausea at 200 mg, perorally for 3 days and weekly 200 mg, perorally maintenance dose for 26 +/- 4 weeks; type: organism-based
[11] = species on record: Homo sapiens; test: Toxicity in […] assessed as incidence of diarrhea at 200 mg, perorally for 3 days and weekly 200 mg, perorally maintenance dose for 26 +/- 4 weeks; type: organism-based
[12] = species on record: Homo sapiens; test: Toxicity in […] assessed as incidence of vortex keratopathy at 200 mg, perorally for 3 days and weekly 200 mg, perorally maintenance dose for 26 +/- 4 weeks; type: organism-based
[13] = species on record: Homo sapiens; test: Toxicity in […] assessed as incidence of pigmentation of retinal epithelium at 200 mg, perorally for 3 days and weekly 200 mg, perorally maintenance dose for 26 +/- 4 weeks; type: organism-based
[14] = species on record: Homo sapiens; test: Toxicity in […] assessed as incidence of abnormal retinal fluorescein at 200 mg, perorally for 3 days and weekly 200 mg, perorally maintenance dose for 26 +/- 4 weeks; type: organism-based
[15] = species on record: Homo sapiens; test: Toxicity in […] assessed as incidence of amnesia at 200 mg, perorally for 3 days and weekly 200 mg, perorally maintenance dose for 26 +/- 4 weeks; type: organism-based
[16] = species on record: Homo sapiens; test: Toxicity in […] assessed as incidence of decrease in hematocrit at 200 mg, perorally for 3 days and weekly 200 mg, perorally maintenance dose for 26 +/- 4 weeks; type: organism-based; set-up: scale not given: the % may be the effect or the level left
[17] = species on record: Homo sapiens; test: Toxicity in […] assessed as incidence of decrease in hematocrit at 250 mg, perorally for 3 days and weekly 250 mg, perorally maintenance dose for 26 +/- 4 weeks relative to baseline; type: organism-based; set-up: scale not given: the % may be the effect or the level left
[18] = species on record: Homo sapiens; test: Toxicity in […] assessed as incidence of increase in bilirubin at 200 mg, perorally for 3 days and weekly 200 mg, perorally maintenance dose for 26 +/- 4 weeks; type: organism-based
[19] = species on record: Homo sapiens; test: Toxicity in […] assessed as incidence of increase in serum creatinine at 200 mg, perorally for 3 days and weekly 200 mg, perorally maintenance dose for 26 +/- 4 weeks; type: organism-based
[20] = species on record: Homo sapiens; test: Toxicity in […] assessed as incidence of paroniria at 200 mg, perorally for 3 days and weekly 200 mg, perorally maintenance dose for 26 +/- 4 weeks; type: organism-based
[21] = species on record: Homo sapiens; test: Toxicity in […] assessed as incidence of depression at 200 mg, perorally for 3 days and weekly 200 mg, perorally maintenance dose for 26 +/- 4 weeks; type: organism-based
[22] = species on record: Homo sapiens; test: Toxicity in […] assessed as incidence of tremor at 200 mg, perorally for 3 days and weekly 200 mg, perorally maintenance dose for 26 +/- 4 weeks; type: organism-based
[23] = species on record: Homo sapiens; test: Toxicity in […] assessed as incidence of euphoria at 200 mg, perorally for 3 days and weekly 200 mg, perorally maintenance dose for 26 +/- 4 weeks; type: organism-based
[24] = species on record: Homo sapiens; test: Toxicity in […] assessed as incidence of agitation at 200 mg, perorally for 3 days and weekly 200 mg, perorally maintenance dose for 26 +/- 4 weeks; type: organism-based
[25] = species on record: Homo sapiens; test: Toxicity in […] assessed as incidence of anxiety at 200 mg, perorally for 3 days and weekly 200 mg, perorally maintenance dose for 26 +/- 4 weeks; type: organism-based
[26] = species on record: Homo sapiens; test: Toxicity in […] assessed as incidence of abnormal coordination at 200 mg, perorally for 3 days and weekly 200 mg, perorally maintenance dose for 26 +/- 4 weeks; type: organism-based
[27] = species on record: Homo sapiens; test: Toxicity in […] assessed as incidence of insomnia at 200 mg, perorally for 3 days and weekly 200 mg, perorally maintenance dose for 26 +/- 4 weeks; type: organism-based
[28] = species on record: Homo sapiens; test: Toxicity in […] assessed as incidence of dizziness at 200 mg, perorally for 3 days and weekly 200 mg, perorally maintenance dose for 26 +/- 4 weeks; type: organism-based
[29] = species on record: Homo sapiens; test: Toxicity in […] assessed as incidence of abnormal dreams at 200 mg, perorally for 3 days and weekly 200 mg, perorally maintenance dose for 26 +/- 4 weeks; type: organism-based
[30] = species on record: Homo sapiens; test: Toxicity in […] assessed as incidence of somnolence at 200 mg, perorally for 3 days and weekly 200 mg, perorally maintenance dose for 26 +/- 4 weeks; type: organism-based
[31] = species on record: Homo sapiens; test: Toxicity in […] assessed as incidence of vertigo at 200 mg, perorally for 3 days and weekly 200 mg, perorally maintenance dose for 26 +/- 4 weeks; type: organism-based
[32] = species on record: Homo sapiens; test: Toxicity in […] assessed as incidence of vomiting at 250 mg, perorally for 3 days and weekly 250 mg, perorally maintenance dose for 26 +/- 4 weeks; type: organism-based
[33] = species on record: Homo sapiens; test: Toxicity in […] assessed as incidence of abdominal pain at 250 mg, perorally for 3 days and weekly 250 mg, perorally maintenance dose for 26 +/- 4 weeks; type: organism-based, Abdomen
[34] = species on record: Homo sapiens; test: Toxicity in […] assessed as incidence of nausea at 250 mg, perorally for 3 days and weekly 250 mg, perorally maintenance dose for 26 +/- 4 weeks; type: organism-based
[35] = species on record: Homo sapiens; test: Toxicity in […] assessed as incidence of diarrhea at 250 mg, perorally for 3 days and weekly 250 mg, perorally maintenance dose for 26 +/- 4 weeks; type: organism-based
[36] = species on record: Homo sapiens; test: Toxicity in […] assessed as incidence of gastroentertis at 250 mg, perorally for 3 days and weekly 250 mg, perorally maintenance dose for 26 +/- 4 weeks; type: organism-based
[37] = species on record: Homo sapiens; test: Toxicity in […] assessed as incidence of increase in serum creatinine at 250 mg, perorally for 3 days and weekly 250 mg, perorally maintenance dose for 26 +/- 4 weeks; type: organism-based
[38] = species on record: Homo sapiens; test: Toxicity in […] assessed as incidence of pigmentation of retinal epithelium at 250 mg, perorally for 3 days and weekly 250 mg, perorally maintenance dose for 26 +/- 4 weeks; type: organism-based
[39] = species on record: Homo sapiens; test: Toxicity in […] assessed as incidence of abnormal retinal fluorescein at 250 mg, perorally for 3 days and weekly 250 mg, perorally maintenance dose for 26 +/- 4 weeks; type: organism-based
[40] = species on record: Homo sapiens; test: Toxicity in […] assessed as incidence of vertigo at 250 mg, perorally for 3 days and weekly 250 mg, perorally maintenance dose for 26 +/- 4 weeks; type: organism-based
[41] = species on record: Homo sapiens; test: Toxicity in […] assessed as incidence of somnolence at 250 mg, perorally for 3 days and weekly 250 mg, perorally maintenance dose for 26 +/- 4 weeks; type: organism-based
[42] = species on record: Homo sapiens; test: Toxicity in […] assessed as incidence of abnormal dreams at 250 mg, perorally for 3 days and weekly 250 mg, perorally maintenance dose for 26 +/- 4 weeks; type: organism-based
[43] = species on record: Homo sapiens; test: Toxicity in […] assessed as incidence of dizziness at 250 mg, perorally for 3 days and weekly 250 mg, perorally maintenance dose for 26 +/- 4 weeks; type: organism-based
[44] = species on record: Homo sapiens; test: Toxicity in […] assessed as incidence of insomnia at 250 mg, perorally for 3 days and weekly 250 mg, perorally maintenance dose for 26 +/- 4 weeks; type: organism-based
[45] = species on record: Homo sapiens; test: Toxicity in […] assessed as incidence of abnormal coordination at 250 mg, perorally for 3 days and weekly 250 mg, perorally maintenance dose for 26 +/- 4 weeks; type: organism-based
[46] = species on record: Homo sapiens; test: Toxicity in […] assessed as incidence of depression at 250 mg, perorally for 3 days and weekly 250 mg, perorally maintenance dose for 26 +/- 4 weeks; type: organism-based
[47] = species on record: Homo sapiens; test: Toxicity in […] assessed as incidence of increase in bilirubin at 250 mg, perorally for 3 days and weekly 250 mg, perorally maintenance dose for 26 +/- 4 weeks; type: organism-based
[48] = species on record: Homo sapiens; test: Toxicity in […] assessed as incidence of viral infection at 250 mg, perorally for 3 days and weekly 250 mg, perorally maintenance dose for 26 +/- 4 weeks; type: organism-based
[49] = species on record: Homo sapiens; test: Toxicity in […] assessed as incidence of headache at 250 mg, perorally for 3 days and weekly 250 mg, perorally maintenance dose for 26 +/- 4 weeks; type: organism-based
[50] = species on record: Homo sapiens; test: Toxicity in […] assessed as incidence of fungal dermatitis at 250 mg, perorally for 3 days and weekly 250 mg, perorally maintenance dose for 26 +/- 4 weeks; type: organism-based
[51] = species on record: Homo sapiens; test: Toxicity in […] assessed as incidence of rash at 250 mg, perorally for 3 days and weekly 250 mg, perorally maintenance dose for 26 +/- 4 weeks; type: organism-based
[52] = species on record: Homo sapiens; test: Toxicity in […] assessed as incidence of phayngitis at 250 mg, perorally for 3 days and weekly 250 mg, perorally maintenance dose for 26 +/- 4 weeks; type: organism-based
[53] = species on record: Homo sapiens; test: Toxicity in […] assessed as incidence of upper respiratory tract infection at 250 mg, perorally for 3 days and weekly 250 mg, perorally maintenance dose for 26 +/- 4 weeks; type: organism-based
[54] = species on record: Homo sapiens; test: Toxicity in […] assessed as incidence of arthralgia at 250 mg, perorally for 3 days and weekly 250 mg, perorally maintenance dose for 26 +/- 4 weeks; type: organism-based
[55] = species on record: Homo sapiens; test: Toxicity in […] assessed as incidence of back pain at 250 mg, perorally for 3 days and weekly 250 mg, perorally maintenance dose for 26 +/- 4 weeks; type: organism-based
[56] = species on record: Homo sapiens; test: Toxicity in […] assessed as incidence of musculoskeletal injury at 250 mg, perorally for 3 days and weekly 250 mg, perorally maintenance dose for 26 +/- 4 weeks; type: organism-based

Work on `COc1cc(C)c2c(Oc3cccc(C(F)(F)F)c3)c(OC)cc(NC(C)CCCN)c2n1` (stereo unspecified) [TAFENOQUINE] yielded an Activity [1] of 39%, an Activity [2] of 61% and an Activity [3] of 44%. The Activity [4] was 70%, the Activity [5] was 25% and the Activity [6] was 55%. For the same molecule, the Activity [7] was 74%, the Activity [8] was 21% and the Activity [9] was 24%. The Activity [10] was 28%, the Activity [11] was 77% and the Activity [12] was 93.2%. The Activity [13] was 39.1%, the Activity [14] was 28.6% and the Activity [15] was 1%. The Activity [16] was 20%, the Activity [17] was 15% and the Activity [18] was 2.6%. For the same molecule, the Activity [19] was 19%, the Activity [20] was 1% and the Activity [21] was 1%. The Activity [22] was 2%, the Activity [23] was 2% and the Activity [24] was 2%. For the same molecule, the Activity [25] was 2%, the Activity [26] was 2% and the Activity [27] was 5%. For the same molecule, the Activity [28] was 5%, the Activity [29] was 7% and the Activity [30] was 12%. The Activity [31] was 22%.
`OC(c1cc(C(F)(F)F)nc2c(C(F)(F)F)cccc12)C1CCCCN1` (stereo unspecified) [MEFLOQUINE] showed an Activity [32] of 8%, an Activity [33] of 13% and an Activity [34] of 13%. It also gave an Activity [35] of 30%, an Activity [36] of 51% and an Activity [37] of 10%. For the same molecule, the Activity [38] was 23.5%, the Activity [39] was 100% and the Activity [40] was 8%. The Activity [41] was 6%, the Activity [42] was 2% and the Activity [43] was 2%. It also gave an Activity [44] of 3%, an Activity [45] of 1% and an Activity [46] of 1%. The Activity [47] was 0.6%, the Activity [48] was 13% and the Activity [49] was 20%. The Activity [50] was 8%, the Activity [51] was 21% and the Activity [52] was 3%. It also gave an Activity [53] of 32%, an Activity [54] of 18% and an Activity [55] of 26%. For the same molecule, the Activity [56] was 49%.
